These results are taken from patent publication US20190300882A1, “METHODS OF TREATING NEUROBLASTOMA AND REAGENTS THEREFOR” (GARVAN INSTITUTE OF MEDICAL RESEARCH, priority 2016, published 2019).

Common to all, as to format: cell-based
Series [1] deals with SHEP cells. Briefly: Primary functional miRNA mimic screen, CellTiter-Glo cell viability. The settings on record: miRNA mimic 25 nM alone, 144 hours post-transfection. An excerpt: Breast cancer cell lines (MDA-MB-231, MDA-MB-468, SK-BR-3; BT474) and prostate cancer cell lines (PC3, DU145) were obtained from American Type Culture Collection (ATCC). Neuroblastoma cell lines (KELLY, SHEP) were received from Children's Cancer Institute (CCIA). The KELLY cells were selected as a MYCN amplified neuroblastoma cell line and the SHEP cells were selected as a MYCN wild-type neuroblastoma cell line.
All breast and prostate cancer cell lines were cultivated in RPMI media supplemented with 10% FCS, HEPES, and insulin. The neuroblastoma cell lines, KELLY, SHEP, were grown in 10% FCS/RPMI and 10% FCS/DMEM, respectively.
(§1) Each of the cell lines were reverse transfected in 384-well plate format with 25 nM of a miRNA from the Dharmacon miRNA mimic or inhibitor libraries (version 16.0) using liquid-handling robot Calliper Sciclone ALH3000 according to the conditions described in Table 3. After 24 hours, media was changed using BioTek 406, and 144 hours post-transfection, cell viability was determined using CellTiter-Glo luminescent assay (Promega) at 1:2 dilution. Luminescence measurements were taken on the Synergy H4 high-throughput multimode microplate reader. All screens were performed in duplicates.
Raw viability was normalised to a nontargeting control (OTP) or mock wells, and death genes or controls inducing varying levels of death were used to monitor transfection efficiency and to define dynamic range in each screen (FIG. 1). To define screen hits, normalised viability scores were binned in the following manner: CV1 bin included candidates with viability >=0.8; CV2 bin included candidates with viability <0.8 and >0.5, and LC bin was assigned to candidates with normalised viability <=0.5. Only LC candidates were defined as screen hits.
On the technique in general: ATP-based viability assays read luminescence as a measure of living cells.

In series [2] the test system is KELLY cells. The experiment in a line: Secondary validation screen of lethal miRNAs, cell viability. The settings on record: miRNA mimic alone. As for the experimental part:
as §1
(§2) The secondary validation screens were performed in accordance with the genome-wide screens described in Example 1 and Example 2, respectively, with the exception that an additional MYCN-amplified neuroblastoma cell line (SK-N-DZ) was added to each screen.
(§3) Furthermore, five additional non-active miRNAs discovered to have no measureable effect across all treatment groups of the genome-wide screen (‘non-lethal’ miRNAs) were included as negative controls.

Series [3] concerns SHEP cells. The series is described as above. The settings on record: miRNA mimic alone. On the procedure:
as §1, §2, §3

In series [4] the test system is KELLY cells. Briefly: Primary functional miRNA mimic screen, CellTiter-Glo cell viability. The settings on record: miRNA mimic 25 nM alone, 144 hours post-transfection. An excerpt: Breast cancer cell lines (MDA-MB-231, MDA-MB-468, SK-BR-3; BT474) and prostate cancer cell lines (PC3, DU145) were obtained from American Type Culture Collection (ATCC). Neuroblastoma cell lines (KELLY, SHEP) were received from Children's Cancer Institute (CCIA). The KELLY cells were selected as a MYCN amplified neuroblastoma cell line and the SHEP cells were selected as a MYCN wild-type neuroblastoma cell line. All breast and prostate cancer cell lines were cultivated in RPMI media supplemented with 10% FCS, HEPES, and insulin. […] Each of the cell lines were reverse transfected in 384-well plate format with 25 nM of a miRNA from the Dharmacon miRNA mimic or inhibitor libraries (version 16.0) using liquid-handling robot Calliper Sciclone ALH3000 according to the conditions described in Table 3. […] Luminescence measurements were taken on the Synergy H4 high-throughput multimode microplate reader. All screens were performed in duplicates. Raw viability was normalised to a nontargeting control (OTP) or mock wells, and death genes or controls inducing varying levels of death were used to monitor transfection efficiency and to define dynamic range in each screen (FIG. 1). To define screen hits, normalised viability scores were binned in the following manner: CV1 bin included candidates with viability >=0.8; […] Only LC candidates were defined as screen hits.

In the next series the test system is RGS16 mRNA. Briefly: qPCR of target mRNA in KELLY cells transfected with miRNA mimic. The settings on record: 25 nM mimic, 96 h after transfection. As for the experimental part:
(§4) KELLY cells were transfected with let-7b-5p, miR-101-3p, and miR-202-3p mimics and real-time PCR performed to determine any changes in mRNA expression levels of HAND1, RGS16, RBFOX2, and ACVR2B. Briefly, KELLY cells were grown in 10% FCS/RPMI and transfected with 25 nM of let-7b-5p, miR-101-3p or miR-202-3p mimic using Dharmafect 1 (DF1) transfection reagent. 96 h after transfection, the cells were harvested and total RNA was extracted using miRneasy kit (Qiagen). RNA was then subjected to reverse transcription to generate cDNA. Quantification of gene expression was then performed using qPCR and Taqman probes and primers for HAND1, RGS 16, RBFOX2, and ACVR2B. The levels of gene expression for HAND1, RGS16, RBFOX2, and ACVR2B were normalised to the housekeeping genes B2M and GAPDH
A general note: In qPCR the cycle at which signal appears reflects the starting amount.

A further series deals with RBFOX2 mRNA. The series is described as above. The settings on record: 25 nM mimic, 96 h after transfection. On the procedure:
as §4

For series [5], the system named is SK-N-DZ MYCN-amplified neuroblastoma cell line. The experiment in a line: Secondary validation screen of lethal miRNAs, additional cell line, cell viability. To be noted: miRNA mimic alone. As for the experimental part:
as §1, §2, §3

Take “hsa-miR-101-3p (UACAGUACUGUGAUAACUGAA; chemistry not given here; listed as Homo sapiens)”: in the series with SHEP cells [1], the “Primary screen Viability (% of control) SHEP” value is recorded as 58 % of control. For the same substance, in the series with KELLY cells [2], the “Secondary screen Viability (% of control) KELLY” value is 7 % of control. Also, the “Secondary screen Viability (% of control) SHEP” value in the series with SHEP cells [3] is 69 % of control. Further, the “Primary screen Viability (% of control) KELLY” value with KELLY cells [4] is 6 % of control. The “RGS16 mRNA levels” value with RGS16 mRNA was “did not affect”. Besides, in the series on RBFOX2 mRNA, the “RBFOX2 mRNA levels” value is “did not affect”. For the same substance, in series [5], the “Additional cell line Viability (% of control) SKNDZ” value is on record as 72 % of control.

Regarding “hsa-miR-1262 (AUGGGUGAAUUUGUAGAAGGAU; chemistry not given here; listed as Homo sapiens)”, the “Primary screen Viability (% of control) SHEP” value with SHEP cells [1] was 31 % of control. Moreover, the “Secondary screen Viability (% of control) KELLY” value with KELLY cells [2] was 8 % of control. The “Secondary screen Viability (% of control) SHEP” value with SHEP cells [3] is 42 % of control. Moreover, the “Primary screen Viability (% of control) KELLY” value in the series on KELLY cells [4] is on record as 8 % of control. Further, the “Additional cell line Viability (% of control) SKNDZ” value in series [5] is 13 % of control.
